Laboratory results taken from PubChem BioAssay (NCI).
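Five concentrations, 48 hours, 96-well plates. TGI marks complete inhibition of growth.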

Experiments:
Test in all cases: NCI tumour cell line growth inhibition, 48 h
786-0 renal = tested on: 786-0 renal
A498 renal = tested on: A498 renal
A549 NSCLC = tested on: A549 NSCLC
ACHN renal = tested on: ACHN renal
BT-549 breast = tested on: BT-549 breast
CAKI-1 renal = tested on: CAKI-1 renal
COLO 205 colon = tested on: COLO 205 colon
DU-145 prostate = tested on: DU-145 prostate
EKVX NSCLC = tested on: EKVX NSCLC
HCC-2998 colon = tested on: HCC-2998 colon
HCT-116 colon = tested on: HCT-116 colon
HCT-15 colon = tested on: HCT-15 colon
HOP-62 NSCLC = tested on: HOP-62 NSCLC
HOP-92 NSCLC = tested on: HOP-92 NSCLC
HS 578T breast = tested on: HS 578T breast
IGROV1 ovarian = tested on: IGROV1 ovarian
K-562 leukemia = tested on: K-562 leukemia
KM12 colon = tested on: KM12 colon
LOX IMVI melanoma = tested on: LOX IMVI melanoma
M14 melanoma = tested on: M14 melanoma
MALME-3M melanoma = tested on: MALME-3M melanoma
MCF7 breast = tested on: MCF7 breast
MDA-MB-231 breast = tested on: MDA-MB-231 breast
MDA-MB-435 = tested on: MDA-MB-435
MDA-N = tested on: MDA-N
MOLT-4 leukemia = tested on: MOLT-4 leukemia
NCI-H226 lung = tested on: NCI-H226 lung
NCI-H23 lung = tested on: NCI-H23 lung
NCI-H460 lung = tested on: NCI-H460 lung
NCI-H522 lung = tested on: NCI-H522 lung
NCI/ADR-RES ovarian = tested on: NCI/ADR-RES ovarian
OVCAR-3 ovarian = tested on: OVCAR-3 ovarian
OVCAR-4 ovarian = tested on: OVCAR-4 ovarian
OVCAR-5 ovarian = tested on: OVCAR-5 ovarian
OVCAR-8 ovarian = tested on: OVCAR-8 ovarian
PC-3 prostate = tested on: PC-3 prostate
RPMI-8226 leukemia = tested on: RPMI-8226 leukemia
RXF 393 renal = tested on: RXF 393 renal
SF-268 CNS = tested on: SF-268 CNS
SF-295 CNS = tested on: SF-295 CNS
SF-539 CNS = tested on: SF-539 CNS
SK-MEL-2 melanoma = tested on: SK-MEL-2 melanoma
SK-MEL-28 melanoma = tested on: SK-MEL-28 melanoma
SK-MEL-5 melanoma = tested on: SK-MEL-5 melanoma
SN12C renal = tested on: SN12C renal
SNB-19 CNS = tested on: SNB-19 CNS
SNB-75 CNS = tested on: SNB-75 CNS
SR leukemia = tested on: SR leukemia
SW-620 colon = tested on: SW-620 colon
T-47D breast = tested on: T-47D breast
TK-10 renal = tested on: TK-10 renal
U251 CNS = tested on: U251 CNS
UACC-257 melanoma = tested on: UACC-257 melanoma
UACC-62 melanoma = tested on: UACC-62 melanoma
UO-31 renal = tested on: UO-31 renal
CCRF-CEM leukemia = tested on: CCRF-CEM leukemia
HL-60(TB) leukemia = tested on: HL-60(TB) leukemia
HT29 colon = tested on: HT29 colon
SK-OV-3 ovarian = tested on: SK-OV-3 ovarian

Structure (SMILES): CC(C)=CCC[C@@H](C)/C=C/C=C(\C)C(=O)CC[C@@H]1CC[N@+]2(C)CCCC[C@H]12
- TGI (786-0 renal): > 100 µM
- TGI (A498 renal): > 100 µM
- TGI (A549 NSCLC): > 100 µM
- TGI (ACHN renal): > 100 µM
- TGI (BT-549 breast): > 100 µM
- TGI (CAKI-1 renal): > 100 µM
- TGI (COLO 205 colon): > 100 µM
- TGI (DU-145 prostate): > 100 µM
- TGI (EKVX NSCLC): > 100 µM
- TGI (HCC-2998 colon): > 100 µM
- TGI (HCT-116 colon): > 100 µM
- TGI (HCT-15 colon): > 100 µM
- TGI (HOP-62 NSCLC): > 100 µM
- TGI (HOP-92 NSCLC): > 100 µM
- TGI (HS 578T breast): > 100 µM
- TGI (IGROV1 ovarian): > 100 µM
- TGI (K-562 leukemia): > 100 µM
- TGI (KM12 colon): > 100 µM
- TGI (LOX IMVI melanoma): > 100 µM
- TGI (M14 melanoma): > 100 µM
- TGI (MALME-3M melanoma): > 100 µM
- TGI (MCF7 breast): > 100 µM
- TGI (MDA-MB-231 breast): > 100 µM
- TGI (MDA-MB-435): > 100 µM
- TGI (MDA-N): > 100 µM
- TGI (MOLT-4 leukemia): > 100 µM
- TGI (NCI-H226 lung): > 100 µM
- TGI (NCI-H23 lung): > 100 µM
- TGI (NCI-H460 lung): > 100 µM
- TGI (NCI-H522 lung): > 100 µM
- TGI (NCI/ADR-RES ovarian): > 100 µM
- TGI (OVCAR-3 ovarian): > 100 µM
- TGI (OVCAR-4 ovarian): > 100 µM
- TGI (OVCAR-5 ovarian): > 100 µM
- TGI (OVCAR-8 ovarian): > 100 µM
- TGI (PC-3 prostate): > 100 µM
- TGI (RPMI-8226 leukemia): > 100 µM
- TGI (RXF 393 renal): > 100 µM
- TGI (SF-268 CNS): > 100 µM
- TGI (SF-295 CNS): > 100 µM
- TGI (SF-539 CNS): > 100 µM
- TGI (SK-MEL-2 melanoma): > 100 µM
- TGI (SK-MEL-28 melanoma): > 100 µM
- TGI (SK-MEL-5 melanoma): > 100 µM
- TGI (SN12C renal): > 100 µM
- TGI (SNB-19 CNS): > 100 µM
- TGI (SNB-75 CNS): > 100 µM
- TGI (SR leukemia): > 100 µM
- TGI (SW-620 colon): > 100 µM
- TGI (T-47D breast): > 100 µM
- TGI (TK-10 renal): > 100 µM
- TGI (U251 CNS): > 100 µM
- TGI (UACC-257 melanoma): > 100 µM
- TGI (UACC-62 melanoma): > 100 µM
- TGI (UO-31 renal): > 100 µM

Structure (SMILES): CC(=O)C1=C(C)N2C(=NC3=C(CCc4ccccc43)C2c2ccc(F)cc2)S1 (configuration not stated)
- TGI (786-0 renal): > 100 µM
- TGI (A498 renal): > 100 µM
- TGI (A549 NSCLC): > 100 µM
- TGI (ACHN renal): > 100 µM
- TGI (BT-549 breast): > 100 µM
- TGI (CCRF-CEM leukemia): > 100 µM
- TGI (COLO 205 colon): > 100 µM
- TGI (DU-145 prostate): > 100 µM
- TGI (EKVX NSCLC): > 100 µM
- TGI (HCC-2998 colon): > 100 µM
- TGI (HCT-116 colon): > 100 µM
- TGI (HL-60(TB) leukemia): 92.4 µM
- TGI (HOP-62 NSCLC): > 100 µM
- TGI (HOP-92 NSCLC): > 100 µM
- TGI (HS 578T breast): > 100 µM
- TGI (HT29 colon): > 100 µM
- TGI (IGROV1 ovarian): > 100 µM
- TGI (K-562 leukemia): 90.4 µM
- TGI (KM12 colon): > 100 µM
- TGI (LOX IMVI melanoma): > 100 µM
- TGI (M14 melanoma): > 100 µM
- TGI (MCF7 breast): > 100 µM
- TGI (MDA-MB-231 breast): > 100 µM
- TGI (MDA-MB-435): > 100 µM
- TGI (MDA-N): > 100 µM
- TGI (MOLT-4 leukemia): 6.54 µM
- TGI (NCI-H226 lung): > 100 µM
- TGI (NCI-H23 lung): > 100 µM
- TGI (NCI/ADR-RES ovarian): > 100 µM
- TGI (OVCAR-3 ovarian): > 100 µM
- TGI (OVCAR-4 ovarian): > 100 µM
- TGI (OVCAR-5 ovarian): > 100 µM
- TGI (OVCAR-8 ovarian): > 100 µM
- TGI (PC-3 prostate): > 100 µM
- TGI (RPMI-8226 leukemia): 85 µM
- TGI (RXF 393 renal): > 100 µM
- TGI (SF-268 CNS): > 100 µM
- TGI (SF-295 CNS): > 100 µM
- TGI (SF-539 CNS): > 100 µM
- TGI (SK-MEL-2 melanoma): > 100 µM
- TGI (SK-MEL-28 melanoma): > 100 µM
- TGI (SK-MEL-5 melanoma): > 100 µM
- TGI (SK-OV-3 ovarian): > 100 µM
- TGI (SN12C renal): > 100 µM
- TGI (SNB-19 CNS): > 100 µM
- TGI (SNB-75 CNS): > 100 µM
- TGI (SW-620 colon): > 100 µM
- TGI (T-47D breast): > 100 µM
- TGI (U251 CNS): > 100 µM
- TGI (UACC-257 melanoma): > 100 µM
- TGI (UACC-62 melanoma): > 100 µM
- TGI (UO-31 renal): > 100 µM
